Laboratory results published in PubChem BioAssay AID1845215 (Molecular Pharmacology Branch, DTP, NCI, 2023).

Test system: SW 1271 complex tumor spheroid viability
Assay: Anticancer human tumor SW 1271 cell line growth inhibition;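 also: spheroids exposed to agents for seven days before readout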;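 as to viability, T/C: percent of DMSO vehicle control luminescence so 100% = vehicle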
Conditions: for IC50: curve of first compound; for viability, T/C: stronger effect = lower value
Summary of the method: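 Single agents and combinations were tested on spheroids built from tumor cells plus HUVEC and hMSC, at half-log dilutions starting at or near clinical Cmax, else 10 microM; final DMSO 0.25% (v/v).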

In the case of `COc1cc(C)[nH]c(=O)c1CN1CCc2c(Cl)cc(C(OC)C3COC3)c(Cl)c2C1=O` (stereo not given) + Cn1nnc2c(C(N)=O)ncn2c1=O, the IC50 (second compound 1 µM) is reported as > 10 µM, the IC50 (second compound 3.16 µM) is reported as > 10 µM and the IC50 (second compound 10 µM) is reported as > 10 µM. For the same compound, the IC50 (second compound 31.6 µM) was > 10 µM, the IC50 (second compound 100 µM) was > 10 µM and the viability, T/C (second compound 1 µM, first compound 0.0316 µM) was 92.5%. It also gave a viability, T/C (second compound 1 µM, first compound 0.1 µM) of 90.5%, a viability, T/C (second compound 1 µM, first compound 0.316 µM) of 91.2% and a viability, T/C (second compound 1 µM, first compound 1 µM) of 86.1%. The viability, T/C (second compound 1 µM, first compound 3.16 µM) was 77.5%, the viability, T/C (second compound 1 µM, first compound 10 µM) was 76.7% and the viability, T/C (second compound 3.16 µM, first compound 0.0316 µM) was 98.1%. The viability, T/C (second compound 3.16 µM, first compound 0.1 µM) was 90.2%, the viability, T/C (second compound 3.16 µM, first compound 0.316 µM) was 90.3% and the viability, T/C (second compound 3.16 µM, first compound 1 µM) was 94.4%. For the same compound, the viability, T/C (second compound 3.16 µM, first compound 3.16 µM) was 85%, the viability, T/C (second compound 3.16 µM, first compound 10 µM) was 82.3% and the viability, T/C (second compound 10 µM, first compound 0.0316 µM) was 98.2%. It also gave a viability, T/C (second compound 10 µM, first compound 0.1 µM) of 93.5%, a viability, T/C (second compound 10 µM, first compound 0.316 µM) of 96.1% and a viability, T/C (second compound 10 µM, first compound 1 µM) of 83.8%. It also gave a viability, T/C (second compound 10 µM, first compound 3.16 µM) of 87.8%, a viability, T/C (second compound 10 µM, first compound 10 µM) of 81.4% and a viability, T/C (second compound 31.6 µM, first compound 0.0316 µM) of 97.1%. The viability, T/C (second compound 31.6 µM, first compound 0.1 µM) was 89.8%, the viability, T/C (second compound 31.6 µM, first compound 0.316 µM) was 99.3% and the viability, T/C (second compound 31.6 µM, first compound 1 µM) was 100%. The viability, T/C (second compound 31.6 µM, first compound 3.16 µM) was 88.5%, the viability, T/C (second compound 31.6 µM, first compound 10 µM) was 80.2% and the viability, T/C (second compound 100 µM, first compound 0.0316 µM) was 88.7%. It also gave a viability, T/C (second compound 100 µM, first compound 0.1 µM) of 96.3%, a viability, T/C (second compound 100 µM, first compound 0.316 µM) of 84.2% and a viability, T/C (second compound 100 µM, first compound 1 µM) of 80.7%. For the same compound, the viability, T/C (second compound 100 µM, first compound 3.16 µM) was 77.3% and the viability, T/C (second compound 100 µM, first compound 10 µM) was 76.1%.
`CC1COCCN1c1cc(-c2ccnn2C)c2ccnc(-c3ccn[nH]3)c2n1` (stereo not given) + COc1cc2c(cc1O)CCNC21CSC2c3c(OC(C)=O)c(C)c4c(c3C(COC1=O)N1C(O)C3Cc5cc(C)c(OC)c(O)c5C(C21)N3C)OCO4 was tested, and the IC50 (second compound 30 pM) was < 0.0316 µM, the IC50 (second compound 94.9 pM) was < 0.0316 µM and the IC50 (second compound 0.0003 µM) was < 0.0316 µM. The IC50 (second compound 0.000949 µM) was < 0.0316 µM, the IC50 (second compound 0.003 µM) was < 0.0316 µM and the viability, T/C (second compound 30 pM, first compound 0.0316 µM) was 42.9%. The viability, T/C (second compound 30 pM, first compound 0.1 µM) was 12.5%, the viability, T/C (second compound 30 pM, first compound 0.316 µM) was 7.53% and the viability, T/C (second compound 30 pM, first compound 1 µM) was 3.2%. The viability, T/C (second compound 30 pM, first compound 3.16 µM) was 2.78%, the viability, T/C (second compound 30 pM, first compound 10 µM) was 2.04% and the viability, T/C (second compound 94.9 pM, first compound 0.0316 µM) was 10.9%. It also gave a viability, T/C (second compound 94.9 pM, first compound 0.1 µM) of 6.89%, a viability, T/C (second compound 94.9 pM, first compound 0.316 µM) of 5.14% and a viability, T/C (second compound 94.9 pM, first compound 1 µM) of 3.73%. The viability, T/C (second compound 94.9 pM, first compound 3.16 µM) was 1.95%, the viability, T/C (second compound 94.9 pM, first compound 10 µM) was 2.12% and the viability, T/C (second compound 0.0003 µM, first compound 0.0316 µM) was 10.8%. For the same compound, the viability, T/C (second compound 0.0003 µM, first compound 0.1 µM) was 6.88%, the viability, T/C (second compound 0.0003 µM, first compound 0.316 µM) was 5.11% and the viability, T/C (second compound 0.0003 µM, first compound 1 µM) was 2.88%. It also gave a viability, T/C (second compound 0.0003 µM, first compound 3.16 µM) of 1.51%, a viability, T/C (second compound 0.0003 µM, first compound 10 µM) of 1.29% and a viability, T/C (second compound 0.000949 µM, first compound 0.0316 µM) of 3%. The viability, T/C (second compound 0.000949 µM, first compound 0.1 µM) was 1.96%, the viability, T/C (second compound 0.000949 µM, first compound 0.316 µM) was 1.34% and the viability, T/C (second compound 0.000949 µM, first compound 1 µM) was 1.09%. It also gave a viability, T/C (second compound 0.000949 µM, first compound 3.16 µM) of 0.1%, a viability, T/C (second compound 0.000949 µM, first compound 10 µM) of 0.3% and a viability, T/C (second compound 0.003 µM, first compound 0.0316 µM) of 0.1%. For the same compound, the viability, T/C (second compound 0.003 µM, first compound 0.1 µM) was 0.09%, the viability, T/C (second compound 0.003 µM, first compound 0.316 µM) was 0.1% and the viability, T/C (second compound 0.003 µM, first compound 1 µM) was 0.08%. For the same compound, the viability, T/C (second compound 0.003 µM, first compound 3.16 µM) was 0.09% and the viability, T/C (second compound 0.003 µM, first compound 10 µM) was 0.15%.
